According to patent US20050282781A1, “Compositions of stable bioactive metabolites of docosahexaenoic (DHA) and eicosapentaenoic (EPA) acids” (priority 2004, published 2005):
Marks after values point to notes of the source that are not given here.

What was measured:
[1] = system: pylorus ligated albino rats; assay: Anti-ulcerogenic effect in pylorus ligated rats (ulcer index, gastric juice); assay type: in vivo
Excerpt: Mixture of DBPs (1:1, 1 and 2, Scheme-II), on'the other hand, increased the contents of individual and the total carbohydrates and also the total carbohydrate/protein ratio in the gastric juice. The ratio of the total carbohydrate/protein was taken as the index of the mucin activity.
Another essential criterion of determining the status of mucosal resistance/barrier is the state of mucus secretion. DBPs increase not only the mucosal cellular mucus, but also secrete more dissolved mucus in the gastric juice as evidenced by their effects on gastric juice carbohydrates and on the increased carbohydrate/protein ratio.

open-field test in rats = assay: Open-field test (anxiogenic test model); assay type: in vivo, rat; set-up: Immobility: unit not given here
Experimental: This was determined according to a previously described method (Bhattacharya et al. 1998).
MDMA (5 and 10 mg/Kg, i.p.) produced a dose-related decrease in the number of squares crossed and rears, with concomitant immobility and increased defecation; these effects are qualitatively similar to those induced by yohimbine (2 mg/Kg, i.p. in 0.9% saline as the vehicle). DBPs (1 and 2, 1:1 mixture 10 mg/Kg, p.o. day-1, for 7 days) were administered prior to MDMA or yohimbine administration, on the 7th day, 1 hour after the last DBPs administration (p.o.). Similar anti-anxiogenic effects were observed on pretreatment of MDMA, followed by DBPs.

[2] = system: CS-induced alteration of adrenal gland ascorbic acid and corticosterone concentrations and plasma corticosterone level; assay: Chronic stress induced alteration of adrenal ascorbic acid, adrenal corticosterone and plasma corticosterone; assay type: in vivo, albino rats
Experimental: The study is also relevant in view of the projected links of EPA and DHA to mental development in children which is severely retarded by chronic stress. Rats were randomly assigned to control or stress groups. Those assigned to the stress groups were subjected to 1 hour foot-shock, through a grid floor, every day for 14 days. […] Control animals received only the vehicle in either unstressed or the stressed rats for the same period in a volume of 2 ml/Kg, p.o. […] CS caused marked depletion of adrenal gland ascorbic acid and corticosterone concentrations with concomitant increase in plasma corticosterone levels. […] They had no per se effect on the indices of stress investigated (Table 3).

active learning in rats = assay: Active learning (learning acquisition), number of trials to reach criterion; assay type: in vivo, rat; settings: p.o. once daily 45 min before trial for 4 days, mean ± SEM
Excerpt: In the learning acquisition paradigm, in the control group, the number of shocked and unshocked trials required to reach the criterion of 10 correct conditional responses, were 14.33 and 43.70, respectively.

[3] = system: CS-induced gastric ulceration in albino rats; assay: Chronic stress (foot-shock) induced gastric ulceration; assay type: in vivo
Experimental: A comparative study of DBPs (1, 2, Scheme-II; 1:1 mixture), EPA and DHA was carried out to determine their relative adaptogenic potency against chronic stress in albino rats. The study is also relevant in view of the projected links of EPA and DHA to mental development in children which is severely retarded by chronic stress.
Rats were randomly assigned to control or stress groups. Those assigned to the stress groups were subjected to 1 hour foot-shock, through a grid floor, every day for 14 days. The duration of each shock (2 mA) and the intervals between the shocks were randomly programmed between 3-5 seconds and 10-110 seconds, respectively, to make the stress unpredictable.
EPA (Aldrich), DHA (Sigma) and DBPs were separately suspended/dissolved in 0.3% carboxymethylcellulose (CMC) in distilled water and administered orally (p.o.) for 14 days, starting on day 1, 60 min. prior to electro-shock. Control animals received only the vehicle in either unstressed or the stressed rats for the same period in a volume of 2 ml/Kg, p.o. Estimations were conducted on day 14, one hour after the last stress procedure and two hours after the last test compound or vehicle was administered.
The three test compounds had, albeit in different extent, dose-related anti-ulcerogenic effect. The efficacy was in the order: DBPs>DHA>EPA (Table 2).

mice = assay: Forced swimming immobility (behavioral despair), anti-stress; assay type: in vivo; settings: in these doses (50 mg/Kg p.o. × 4 days); statistically insignificant
Experimental: Rodents when forced to swim in a restricted place, from which they cannot escape, become immobile after an initial period of vigorous activity. The observed immobility signified behavioral despair, resembling a state of mental depression. Behavioral depression is a common consequence of stress. The significant anti-stress effects of DBPs (1 and 2, Scheme-II), was assessed by the considerable reduction in the period of immobility in the test compound treated mice.

[4] = system: increased 5-HT release activity in MDMA-treated rats; assay: MDMA-withdrawal increased 5-HT release; assay type: in vivo, rat; settings: post-treatment in MDMA-treated rats
Excerpt: EPA or DHA would not be truly effective for this purpose. There is evidence that presynaptic serotonergic, but not dopaminergic, mechanisms are involved in the enactogen-like discriminative stimulus properties of MDMA. MDMA increases the number of rat brain 5-hydroxytryptamine 5-HT1A receptors and induces increased release of 5-HT from presynaptic terminals. The MDMA-withdrawal syndrome includes this increased 5-HT release activity in rats.

[5] = L-DOPA-sparing by singlet oxygen quenching (Rose Bengal plates); assay type: biochemical; settings: for Percent inhibition of L-DOPA oxidation (mean ± SEM): 30 min exposure to 1O2, Pi buffer pH 7.2
Excerpt: A comparative study of the antioxidant defence provided by the three compounds, DBPs, EPA and DHA, was made. The reason for selection of this test (antioxidant-profile) is, that, agents that can regulate systemic production and interactions of reactive oxygen species, like singlet oxygen, superoxide radical and hydroxyl radical, can provide surveillance umbrella to living organisms against ‘oxidative stress’.
The singlet oxygen was generated on Rose Bengal-coated glass plates by illuminating with a 150-W spot-light at a distance of 30 cm, through water to filter infra-red light (Ghosal, S. and Bhattacharya, S. K. (1996). Antioxidant defence by shilajit, Indian J. Chem., 35B, 127-132).

[6] = Oral EPA or DHA to albino rats, blood levels of DBPs and benzoic acid by HPLC and GC-MS; assay type: in vivo
Experimental: Oral administration of EPA to albino rats and tracking the blood level of DBPs by HPLC were conducted. […] Cells and plasma were separated by centrifugation and extracted separately with methanol before (BH) and after acidic (HCl) hydrolysis (AH). These extracts were subjected to HPLC, when DBPs (3-hydroxy- and 3,8-dihydroxydibenzo-α-pyrones) so formed were tracked and estimated. FIGS. 2A and 2B show the turnover of EPA into 3,8-dihydroxydibenzo-α-pyrone.
Blood samples (2.5 ml) were collected from albino rats (200-220 grams, b.w.) by retro-orbital puncture, in heparinized tubes and centrifuged (3000 rpm) for 5 min. The supernatant (plasma, 0.4 ml) was collected and extracted with methanol (5 ml×3), at 60° C. by sonication for 10 min each. The combined methanolic extract was filtered and evaporated in vacuo. The residue so obtained was subjected to HPLC and GC-MS (as TMS derivatives) analyses. The presence of both 3-hydroxy-(str. 1, Scheme-II) and 3,8-dihydroxy-dibenzo-α-pyrone (str. 2, Scheme-II) was detected. Thus, the two DBPs are the normal metabolites of the albino rats. Their normal concentrations (control value) in the experimental rat blood were estimated at 0.170±0.052 μg/ml (str. 1, Scheme-II) and 0.100±0.023 μg/ml (str. 2, Scheme-II).
In the EPA treatment experiment to the above animals, EPA (25 mg, in propylene glycol, 0.5 ml) per rat was fed through the oral route. […]

[7] = 10 mg/Kg p.o. for 7 days, prior to MDMA or yohimbine administration
[8] = 5 mg/Kg p.o. for 14 days + chronic stress
[9] = 5 mg/Kg p.o., unstressed rats (per se effect)
[10] = 10 mg/Kg p.o. for 14 days + chronic stress
[11] = 10 mg/Kg p.o., unstressed rats (per se effect)

Structure (SMILES) | Faecal pellets (open-field test in rats; [7]) | Immobility (open-field test in rats; [7]) | Rears (open-field test in rats; [7]) | Squares crossed (open-field test in rats; [7]) | Adrenal ascorbic acid [2, 8] [μg/100 mg] | Adrenal corticosterone [2, 8] [μg/100 mg] | Plasma corticosterone [2, 8] | Adrenal ascorbic acid [2, 9] [μg/100 mg] | Adrenal corticosterone [2, 9] [μg/100 mg] | Plasma corticosterone [2, 9] [µg/dL] | Adrenal ascorbic acid [2, 10] | Adrenal corticosterone [2, 10] | Plasma corticosterone [2, 10] | Adrenal ascorbic acid [2, 11] [μg/100 mg] | Adrenal corticosterone [2, 11] [μg/100 mg] | Plasma corticosterone [2, 11] [µg/dL] | Number of trials to reach criterion, Shocked trials (active learning in rats; dose 2.5 mg/ml) | Number of trials to reach criterion, Unshocked trials (active learning in rats; dose 2.5 mg/ml) | Number of trials to reach criterion, Shocked trials (active learning in rats; dose 5.0 mg/ml) | No. of ulcers [3, 8] | further results
CC(=O)Oc1ccccc1C(=O)O [ASP, aspirin] |  |  |  |  |  |  |  |  |  |  |  |  |  |  |  |  |  |  |  |  | protein content in the gastric juice ([1]; compared to the vehicle control): significant increase; contents of DNA and protein in the gastric juice ([1]; pylorus ligated rats): appreciable increase; total carbohydrate/protein ratio in the gastric juice (index of mucin activity) ([1]; pylorus ligated rats): considerable decrease
CC/C=C\C/C=C\C/C=C\C/C=C\C/C=C\C/C=C\CCC(=O)O [DHA, docosahexaenoic acid] | 5.7 ± 4.1 | 59.9 ± 7.2 | 14.0 ± 5.5 | 122.1 ± 5.5 | 140.7 ± 20.5 | 2.5 ± 1.0 | 22.5 ± 3.5^b μg/dL | 309.4 ± 30.4 | 4.8 ± 1.2 | 15.0 ± 0.9 | 148.0 ± 16.7^b μg/100 mg | 2.8 ± 1.0^b μg/100 mg | 17.9 ± 0.9^b μg/dL | 308.9 ± 27.4 | 5.5 ± 1.0 | 14.7 ± 1.0 | 12.55 ± 2.03 | 39.33 ± 2.04 | 12.78 ± 1.83 | 15.8 ± 4.0 | Severity of ulcers [3, 8]: 28.1 ± 5.9; Ulcer incidence (%) [3, 8]: 70%; No. of ulcers [3, 10]: 14.7 ± 3.8; Severity of ulcers [3, 10]: 25.0 ± 5.2; Ulcer incidence (%) [3, 10]: 60%
CC/C=C\C/C=C\C/C=C\C/C=C\C/C=C\CCCC(=O)O [EPA, cis-5,8,11,14,17-Eicosapentaenoic acid] | 6.8 ± 3.0 | 70.1 ± 5.3 | 12.2 ± 4.8 | 116.5 ± 9.9 | 138.5 ± 18.2 | 3.0 ± 1.4 | 17.9 ± 0.9^b μg/dL | 308.8 ± 28.7 | 5.7 ± 1.4 | 15.0 ± 1.6 | 144.2 ± 14.7^b μg/100 mg | 2.9 ± 0.7^b μg/100 mg | 18.3 ± 1.8^b μg/dL | 310.5 ± 26.0 | 5.2 ± 0.8 | 15.5 ± 1.1 | 13.82 ± 1.04 | 40.11 ± 1.88 | 12.11 ± 2.01 | 16.5 ± 3.4 | anti-stress response (mice): very weak anti-stress response; anti-ulcerogenic effect ([1]; 10 mg/ml): only weak anti-ulcerogenic effects; reversal of the anxiety-inducing potential of MDMA (open-field test in rats; Table 5 model): only weak reversal effect; prevention of MDMA-withdrawal increased 5-HT release [4]: not; antioxidant effect (1O2 quenching) ([5]; 0.1-0.4 mM): only weak antioxidant effect; Percent inhibition of L-DOPA oxidation (mean ± SEM) ([5]; L-DOPA:test compound 1:0.1 mM): 7.7 ± 1.3%; Percent inhibition of L-DOPA oxidation (mean ± SEM) ([5]; L-DOPA:test compound 1:0.4 mM): 11.3 ± 3.2%; Number of trials to reach criterion, Unshocked trials (active learning in rats; dose 5.0 mg/ml): 38.14 ± 1.92; Severity of ulcers [3, 8]: 28.3 ± 7.7; Ulcer incidence (%) [3, 8]: 70%; No. of ulcers [3, 10]: 14.3 ± 4.4; Severity of ulcers [3, 10]: 26.4 ± 6.2; Ulcer incidence (%) [3, 10]: 60%; blood level of 3,8-(OH)2-DBP (2) versus control ([6]; after 24 h of EPA treatment): higher than that of the control; blood level of 3,8-(OH)2-DBP (2) versus control ([6]; after 72 h of EPA treatment): came down to control level
CNC(C)Cc1ccc2c(c1)OCO2 (stereo not drawn) [MDMA, Methylenedioxymethylamphetamine] |  |  |  |  |  |  |  |  |  |  |  |  |  |  |  |  |  |  |  |  | Faecal pellets (open-field test in rats; 5 mg/Kg, i.p.): 6.7 ± 0.5; Immobility (open-field test in rats; 5 mg/Kg, i.p.): 69.3 ± 6.1; Rears (open-field test in rats; 5 mg/Kg, i.p.): 14.3 ± 4.2; Squares crossed (open-field test in rats; 5 mg/Kg, i.p.): 111.2 ± 8.0; Faecal pellets (open-field test in rats; 10 mg/Kg, i.p.): 8.0 ± 2.2; Immobility (open-field test in rats; 10 mg/Kg, i.p.): 80.1 ± 7.0; Rears (open-field test in rats; 10 mg/Kg, i.p.): 11.2 ± 3.9; Squares crossed (open-field test in rats; 10 mg/Kg, i.p.): 74.7 ± 5.5
COC(=O)[C@@H]1[C@H]2C[C@H]3c4[nH]c5ccccc5c4CCN3C[C@@H]2CC[C@@H]1O [Yohimbine, yohimbine] |  |  |  |  |  |  |  |  |  |  |  |  |  |  |  |  |  |  |  |  | Faecal pellets (open-field test in rats; 2 mg/Kg, i.p. in 0.9% saline): 7.5 ± 1.2; Immobility (open-field test in rats; 2 mg/Kg, i.p. in 0.9% saline): 70.2 ± 4.9; Rears (open-field test in rats; 2 mg/Kg, i.p. in 0.9% saline): 12.8 ± 4.4; Squares crossed (open-field test in rats; 2 mg/Kg, i.p. in 0.9% saline): 90.8 ± 7.4
